Source: the supplement of paper PMC10307832

Tests used:
Experiment in all cases: relative viability (nuclei count vs DMSO), 5 days (fraction); higher = more cells survive
A549 = tested on: A549
In short: (§1)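 Values are medians from duplicate plates. Each reflects relative viability, defined as the nuclei count of treated wells over that of vehicle wells. Lung cancer cell lines in 1536-well plates were pin-tool dosed one day after seeding with one drug alone or with a fixed anchor-drug dose plus five library-drug doses (not always all listed) in √10 steps, then fixed, stained and imaged at 4× after 5 days.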

IA-LM = tested on: IA-LM
In short: as §1

Calu-6 = tested on: Calu-6
In short: as §1

LK-2 = tested on: LK-2
In short: as §1

NCI-H1703 = tested on: NCI-H1703
In short: as §1

NCI-H1299 = tested on: NCI-H1299
In short: as §1

CAL-12T = tested on: CAL-12T
In short: as §1

NCI-H1623 = tested on: NCI-H1623
In short: as §1

EBC-1 = tested on: EBC-1
In short: as §1

NCI-H1650 = tested on: NCI-H1650
In short: as §1

NCI-H1648 = tested on: NCI-H1648
In short: as §1

NCI-H522 = tested on: NCI-H522
In short: as §1

Molecule `Oc1nc(-c2ccc(C(F)(F)F)cc2)nc2c1CSCC2` [XAV939] + COc1cc2c(Oc3ccc(NC(=O)C4(C(=O)Nc5ccc(F)cc5)CC4)cc3F)ccnc2cc1OCCCN1CCOCC1 [Foretinib] (partner 0.25 µM) has a relative viability (A549; first compound 0.08 µM) of 0.992, a relative viability (A549; first compound 0.8 µM) of 0.883 and a relative viability (A549; first compound 2.53 µM) of 0.9. For the same molecule, the relative viability (IA-LM; first compound 0.08 µM) was 1.29, the relative viability (IA-LM; first compound 0.253 µM) was 0.968 and the relative viability (IA-LM; first compound 0.8 µM) was 1.09. The relative viability (IA-LM; first compound 2.53 µM) was 0.729, the relative viability (Calu-6; first compound 0.08 µM) was 0.88 and the relative viability (Calu-6; first compound 0.253 µM) was 0.704. The relative viability (Calu-6; first compound 0.8 µM) was 0.776, the relative viability (Calu-6; first compound 2.53 µM) was 0.819 and the relative viability (LK-2; first compound 0.08 µM) was 1.96. For the same molecule, the relative viability (LK-2; first compound 0.253 µM) was 1.19, the relative viability (LK-2; first compound 0.8 µM) was 1.08 and the relative viability (LK-2; first compound 2.53 µM) was 1.13. It also gave a relative viability (NCI-H1703; first compound 0.08 µM) of 0.348, a relative viability (NCI-H1703; first compound 0.253 µM) of 0.377 and a relative viability (NCI-H1703; first compound 0.8 µM) of 0.416. It also gave a relative viability (NCI-H1703; first compound 2.53 µM) of 0.374, a relative viability (NCI-H1299; first compound 0.08 µM) of 1.13 and a relative viability (NCI-H1299; first compound 0.253 µM) of 1.11. For the same molecule, the relative viability (NCI-H1299; first compound 0.8 µM) was 1.07, the relative viability (NCI-H1299; first compound 2.53 µM) was 1.08 and the relative viability (CAL-12T; first compound 0.08 µM) was 1.06. For the same molecule, the relative viability (CAL-12T; first compound 0.253 µM) was 1.06, the relative viability (CAL-12T; first compound 0.8 µM) was 1.15 and the relative viability (CAL-12T; first compound 2.53 µM) was 1.09. It also gave a relative viability (NCI-H1623; first compound 0.08 µM) of 0.826, a relative viability (NCI-H1623; first compound 0.253 µM) of 0.75 and a relative viability (NCI-H1623; first compound 0.8 µM) of 0.703. The relative viability (NCI-H1623; first compound 2.53 µM) was 0.677, the relative viability (EBC-1; first compound 0.08 µM) was 0.108 and the relative viability (EBC-1; first compound 0.253 µM) was 0.113. It also gave a relative viability (EBC-1; first compound 0.8 µM) of 0.106, a relative viability (EBC-1; first compound 2.53 µM) of 0.0948 and a relative viability (NCI-H1650; first compound 0.08 µM) of 1.16. For the same molecule, the relative viability (NCI-H1650; first compound 0.253 µM) was 1.25, the relative viability (NCI-H1650; first compound 0.8 µM) was 1.09 and the relative viability (NCI-H1650; first compound 2.53 µM) was 0.625.
`O=C(O)c1ccc(-c2c[nH]c3ncc(-c4ccccc4)cc23)cc1C1CCCC1` + COc1cccc2cc(-c3nc([C@H]4CC[C@H](C(=O)O)CC4)n4ncnc(N)c34)[nH]c12 [OSI-027] (partner 0.5 µM) was tested, and the relative viability (LK-2; first compound 0.04 µM) was 0.202, the relative viability (LK-2; first compound 0.1265 µM) was 0.23 and the relative viability (LK-2; first compound 0.4 µM) was 0.165. For the same molecule, the relative viability (LK-2; first compound 1.265 µM) was 0.195, the relative viability (NCI-H1648; first compound 0.04 µM) was 0.245 and the relative viability (NCI-H1648; first compound 0.1265 µM) was 0.246. For the same molecule, the relative viability (NCI-H1648; first compound 0.4 µM) was 0.254, the relative viability (NCI-H1648; first compound 1.265 µM) was 0.239 and the relative viability (CAL-12T; first compound 0.04 µM) was 0.63. For the same molecule, the relative viability (CAL-12T; first compound 0.1265 µM) was 0.751, the relative viability (CAL-12T; first compound 0.4 µM) was 0.671 and the relative viability (CAL-12T; first compound 1.265 µM) was 0.547. For the same molecule, the relative viability (NCI-H1623; first compound 0.04 µM) was 0.4, the relative viability (NCI-H1623; first compound 0.1265 µM) was 0.455 and the relative viability (NCI-H1623; first compound 0.4 µM) was 0.449. For the same molecule, the relative viability (NCI-H1623; first compound 1.265 µM) was 0.432, the relative viability (NCI-H522; first compound 0.04 µM) was 0.756 and the relative viability (NCI-H522; first compound 0.1265 µM) was 0.74. It also gave a relative viability (NCI-H522; first compound 0.4 µM) of 0.56, a relative viability (NCI-H522; first compound 1.265 µM) of 0.775 and a relative viability (NCI-H1650; first compound 0.04 µM) of 0.544. The relative viability (NCI-H1650; first compound 0.1265 µM) was 0.624, the relative viability (NCI-H1650; first compound 0.4 µM) was 0.624 and the relative viability (NCI-H1650; first compound 1.265 µM) was 0.394.
In the case of `C=C1C(=O)O[C@@H](CCCCCCCC)[C@@H]1C(=O)O` [C-75] + Cc1cc(Nc2cc(N3CCN(C)CC3)nc(Sc3ccc(NC(=O)C4CC4)cc3)n2)n[nH]1 [Tozasertib] (partner 0.1 µM), the relative viability (LK-2; first compound 0.08 µM) is reported as 0.214, the relative viability (LK-2; first compound 0.253 µM) is reported as 0.157 and the relative viability (LK-2; first compound 0.8 µM) is reported as 0.195. For the same molecule, the relative viability (LK-2; first compound 2.53 µM) was 0.155, the relative viability (LK-2; first compound 8 µM) was 0.19 and the relative viability (NCI-H1648; first compound 0.08 µM) was 0.387. It also gave a relative viability (NCI-H1648; first compound 0.253 µM) of 1.26, a relative viability (NCI-H1648; first compound 0.8 µM) of 0.465 and a relative viability (NCI-H1648; first compound 8 µM) of 0.468. The relative viability (CAL-12T; first compound 0.08 µM) was 0.281, the relative viability (CAL-12T; first compound 0.253 µM) was 0.423 and the relative viability (CAL-12T; first compound 0.8 µM) was 0.312. The relative viability (CAL-12T; first compound 2.53 µM) was 0.281, the relative viability (CAL-12T; first compound 8 µM) was 0.345 and the relative viability (NCI-H1623; first compound 0.08 µM) was 0.471. The relative viability (NCI-H1623; first compound 0.253 µM) was 0.417, the relative viability (NCI-H1623; first compound 0.8 µM) was 0.477 and the relative viability (NCI-H1623; first compound 2.53 µM) was 0.419. The relative viability (NCI-H1623; first compound 8 µM) was 0.461, the relative viability (NCI-H522; first compound 0.08 µM) was 0.585 and the relative viability (NCI-H522; first compound 0.253 µM) was 0.598. For the same molecule, the relative viability (NCI-H522; first compound 0.8 µM) was 0.489, the relative viability (NCI-H522; first compound 8 µM) was 0.497 and the relative viability (NCI-H1650; first compound 0.08 µM) was 0.413. It also gave a relative viability (NCI-H1650; first compound 0.253 µM) of 0.647, a relative viability (NCI-H1650; first compound 2.53 µM) of 0.422 and a relative viability (NCI-H1650; first compound 8 µM) of 0.38.
